In brackets after ≈: the same amount, converted by molar mass. Counter-ions that a name gives are not always drawn. Like-named read-outs stand apart in the source and are kept apart here.
Assays:
S. aureus = details: cited from earlier work
murine fibroblasts = details: cited from earlier work
[1] = tested on: murine fibroblasts and test microorganisms (Escherichia coli and Staphylococcus aureus); details: cited from earlier work
mammalian cell = details: cited from earlier work
[2] = tested on: murine fibroblasts and test microorganisms (Escherichia coli and Staphylococcus aureus)
Excerpt: The term “biocompatibility index” is defined by the active agent's effective biological activity and its cytotoxic effect on human or animal cells. […] The biocompatibility index will take into account both the results of the in vitro cytotoxicity, i.e., the concentration at which 50% of the murine fibroblasts are damaged, and the microbial effect, i.e., the concentration at which the baseline burden of the test microorganisms (e.g., Escherichia coli and Staphylococcus aureus) is reduced by at least 3 log 10 (99.9%). A biocompatibility index greater than 1 represent an antibacterial substance with an effective microbicidal activity combined with a relatively low cytotoxicity. […] A biocompatibility index less than 1 indicates an antimicrobial agent with a relatively high cytotoxicity in a defined medium.

[3] = literature values; cited from earlier work
E. coli = details: cited from earlier work
human keratinocyte = details: cited from earlier work
S. mutans = assay: Antimicrobial studies against S. mutans; format: cell-based
Excerpt: According to an embodiment, the amphiphilic biologically active agent may be a synthetic, natural or derived compound having properties for treating or preventing a disease or illness, including: pharmaceutical drugs, pharmaceutical conjugated drugs, pharmaceutical prodrugs, antimicrobial or antiseptic agents, antifungal agents, peptides, DNA or any combinations thereof, which when introduced into the body causes a desired biological response. According to another embodiment, the amphiphilic biologically active agent may be an active agent with a suitable biocompatibility index. Such biologically active agent may have a biocompatibility index greater than 1. According to another embodiment, the preferred amphiphilic biologically active agent may be an antibacterial agent. According to a further embodiment, the most preferred amphiphilic biologically active agent may be the antibacterial agent OCT. OCT is an amphiphilic antiseptic agent with a biocompatibility index of greater than 1. OCT has shown a broad range of efficacy against gram positive and negative bacteria and is used currently as a mouth rinse, wound cleansing agent, topical antiseptic, and for other applications. The CMC of OCT was determined to be 3.79 mM.

In the case of `CCCCCCCCCCCCCCCC[N+](C)(C)C.[Br-]` [CTAB, cetyltrimethylammonium bromide], the “minimum inhibitory concentration (MIC) against S. aureus” value (S. aureus) is listed as 16 µg/mL, the “concentration for 50% reduction in murine fibroblasts” value (murine fibroblasts) is listed as 2 µg/mL and the biocompatibility index [1] is listed as “less than 1”. The “concentration able to reduce mammalian cell viability” value (mammalian cell) was “less than 1 μM”.
In the case of `CCCCCCCCCCCC(=O)N[C@@H](CCCN=C(N)N)C(=O)OCC` [LAE, lauric arginate], the biocompatibility index [2] is given as 5.33, the CMC [3] is given as 4.9 mM and the “MIC against E. coli” value (E. coli) is given as 11.8 µg/mL (≈ 30.7 µM). For the same compound, the “concentration for 50% reduction of human keratinocyte growth” value (human keratinocyte) was 63 µg/mL.
With `CCCCCCCCN=c1ccn(CCCCCCCCCCn2ccc(=NCCCCCCCC)cc2)cc1` [OCT, octenidine dihydrochloride] the “antimicrobial activity compared with CHX” value (S. mutans) was “compared favorably with CHX”.
In the case of benzalkonium chloride, the biocompatibility index [1] is listed as 0.79.
In the case of polyhexamethylene biguanide [PHMB], the CMC [3] is given as 20 to 50 mM and the biocompatibility index ([1]; reported in literature) is given as 1.36.

From patent publication US12220467B2, “Highly loaded metal oxide materials by self-assembly for extended biologically active molecule release in medical and dental applications” (MESOSIL INC., priority 2016, dated 2025)
